Source: patent US20260053811A1, “METHODS OF TREATING HYPERTENSION IN OBESE SUBJECTS” (Mineralys Therapeutics, Inc., priority 2022, published 2026)
Several values for one entry are separate records, joined by “and”; a condition that tells them apart may be missing. Equal values may be shown once.

How the values were obtained:
serum cortisol = experiment: Serum cortisol (pharmacodynamic response); assay type: in vivo, human; conditions: for Cortisol, Mean Observed / Cortisol, Mean Percent Change from Baseline: Part 2
Source text: (§1) PK/PD Analysis Set includes all subjects in the SAF who have sufficient data available for the analysis of pharmacokinetic and pharmacodynamic measurements. In the analyses based on PKPD, subjects will be analyzed according to the actual treatment received.

11-deoxycortisol = experiment: Plasma 11-deoxycortisol (pharmacodynamic response); assay type: in vivo, human; conditions: for 11-Deoxycortisol, Mean (SD) Observed / 11-Deoxycortisol, Mean (SD) Percent Change from Baseline: Part 1; for 11-Deoxycortisol, Mean Observed / 11-Deoxycortisol, Mean Percent Change from Baseline: Part 2
Source text: as §1

`CC(=O)N[C@H]1CC[C@H](NC(=O)CN2CCN(c3nncc(-c4ccc(C)cc4)n3)CC2)CC1` [Compound A HBr] was tested, and the “Serum cortisol percent change from baseline, range across active arms” value (serum cortisol; Part 1, Week 12, listed as lorundrostat) was −1.2% to 22.7% and −1.2 to 22.6%, the “Cortisol, Mean (SD) Observed” value (serum cortisol; Part 1, Wk 4, 12.5 mg BID) was 10.895 (3.859) μg/dL and the “Cortisol, Mean (SD) Percent Change from Baseline” value (serum cortisol; Part 1, Wk 4, 12.5 mg BID) was 10.26 (45.03) %. For the same molecule, the “Cortisol, Mean (SD) Observed” value (serum cortisol; Part 1, Wk 4, 12.5 mg QD) was 9.305 (4.164) μg/dL, the “Cortisol, Mean (SD) Percent Change from Baseline” value (serum cortisol; Part 1, Wk 4, 12.5 mg QD) was 7.47 (37.82) % and the “Cortisol, Mean (SD) Observed” value (serum cortisol; Part 1, Wk 4, 25 mg BID) was 12.311 (5.180) μg/dL. The “Cortisol, Mean (SD) Percent Change from Baseline” value (serum cortisol; Part 1, Wk 4, 25 mg BID) was 19.20 (49.39) %, the “Cortisol, Mean (SD) Observed” value (serum cortisol; Part 1, Wk 4, 50 mg QD) was 10.875 (3.368) μg/dL and the “Cortisol, Mean (SD) Percent Change from Baseline” value (serum cortisol; Part 1, Wk 4, 50 mg QD) was 3.83 (32.48) %. For the same molecule, the “Cortisol, Mean (SD) Observed” value (serum cortisol; Part 1, Wk 4, 100 mg QD) was 11.842 (4.350) μg/dL, the “Cortisol, Mean (SD) Percent Change from Baseline” value (serum cortisol; Part 1, Wk 4, 100 mg QD) was 3.91 (32.33) % and the “Cortisol, Mean (SD) Observed” value (serum cortisol; Part 1, Wk 8, 12.5 mg BID) was 12.316 (7.649) μg/dL. For the same molecule, the “Cortisol, Mean (SD) Percent Change from Baseline” value (serum cortisol; Part 1, Wk 8, 12.5 mg BID) was 20.56 (73.01) %, the “Cortisol, Mean (SD) Observed” value (serum cortisol; Part 1, Wk 8, 12.5 mg QD) was 12.511 (8.784) μg/dL and the “Cortisol, Mean (SD) Percent Change from Baseline” value (serum cortisol; Part 1, Wk 8, 12.5 mg QD) was 41.84 (90.37) %. For the same molecule, the “Cortisol, Mean (SD) Observed” value (serum cortisol; Part 1, Wk 8, 25 mg BID) was 15.525 (8.258) μg/dL, the “Cortisol, Mean (SD) Percent Change from Baseline” value (serum cortisol; Part 1, Wk 8, 25 mg BID) was 49.57 (77.17) % and the “Cortisol, Mean (SD) Observed” value (serum cortisol; Part 1, Wk 8, 50 mg QD) was 15.650 (7.102) μg/dL. The “Cortisol, Mean (SD) Percent Change from Baseline” value (serum cortisol; Part 1, Wk 8, 50 mg QD) was 51.35 (78.86) %, the “Cortisol, Mean (SD) Observed” value (serum cortisol; Part 1, Wk 8, 100 mg QD) was 16.680 (9.083) μg/dL and the “Cortisol, Mean (SD) Percent Change from Baseline” value (serum cortisol; Part 1, Wk 8, 100 mg QD) was 47.29 (92.65) %. The “Cortisol, Mean (SD) Observed” value (serum cortisol; Part 1, Wk 12, 12.5 mg BID) was 9.978 (2.742) μg/dL, the “Cortisol, Mean (SD) Percent Change from Baseline” value (serum cortisol; Part 1, Wk 12, 12.5 mg BID) was −1.22 (21.10) % and the “Cortisol, Mean (SD) Observed” value (serum cortisol; Part 1, Wk 12, 12.5 mg QD) was 9.317 (3.294) μg/dL. The “Cortisol, Mean (SD) Percent Change from Baseline” value (serum cortisol; Part 1, Wk 12, 12.5 mg QD) was 18.06 (48.59) %, the “Cortisol, Mean (SD) Observed” value (serum cortisol; Part 1, Wk 12, 25 mg BID) was 12.559 (4.287) μg/dL and the “Cortisol, Mean (SD) Percent Change from Baseline” value (serum cortisol; Part 1, Wk 12, 25 mg BID) was 22.65 (41.94) %. The “Cortisol, Mean (SD) Observed” value (serum cortisol; Part 1, Wk 12, 50 mg QD) was 11.262 (3.590) μg/dL, the “Cortisol, Mean (SD) Percent Change from Baseline” value (serum cortisol; Part 1, Wk 12, 50 mg QD) was 6.91 (35.36) % and the “Cortisol, Mean (SD) Observed” value (serum cortisol; Part 1, Wk 12, 100 mg QD) was 12.680 (5.659) μg/dL. For the same molecule, the “Cortisol, Mean (SD) Percent Change from Baseline” value (serum cortisol; Part 1, Wk 12, 100 mg QD) was 8.40 (30.09) %, the “Cortisol, Mean Observed” value (serum cortisol; Wk 4, 100 mg QD) was 13.464 µg/dL and the “Cortisol, Mean Percent Change from Baseline” value (serum cortisol; Wk 4, 100 mg QD) was 20.10%. For the same molecule, the “Cortisol, Mean Observed” value (serum cortisol; Wk 8, 100 mg QD) was 25.393 µg/dL, the “Cortisol, Mean Percent Change from Baseline” value (serum cortisol; Wk 8, 100 mg QD) was 153.35% and the “Cortisol, Mean Observed” value (serum cortisol; Wk 10, 100 mg QD) was 10.763 µg/dL. The “Cortisol, Mean Percent Change from Baseline” value (serum cortisol; Wk 10, 100 mg QD) was 1.45%, the “Effects on serum cortisol” value (serum cortisol; pooled (Part 1 and Part 2) 100 mg QD safety set (n=60)) was “no effects on serum cortisol” and the “Effects on serum cortisol” value (serum cortisol; safety dataset, complete analysis) was “no effects on serum cortisol”. For the same molecule, the “Morning serum cortisol levels” value (serum cortisol; summary of trial) was “modestly increased”, the “11-Deoxycortisol, Mean (SD) Observed” value (11-deoxycortisol; Wk 4, 12.5 mg BID) was 24.89 (18.99) ng/dL and the “11-Deoxycortisol, Mean (SD) Percent Change from Baseline” value (11-deoxycortisol; Wk 4, 12.5 mg BID) was 22.56 (118.56) %. The “11-Deoxycortisol, Mean (SD) Observed” value (11-deoxycortisol; Wk 4, 12.5 mg QD) was 24.21 (19.92) ng/dL, the “11-Deoxycortisol, Mean (SD) Percent Change from Baseline” value (11-deoxycortisol; Wk 4, 12.5 mg QD) was 10.07 (76.22) % and the “11-Deoxycortisol, Mean (SD) Observed” value (11-deoxycortisol; Wk 4, 25 mg BID) was 35.23 (33.00) ng/dL. For the same molecule, the “11-Deoxycortisol, Mean (SD) Percent Change from Baseline” value (11-deoxycortisol; Wk 4, 25 mg BID) was 40.12 (118.32) %, the “11-Deoxycortisol, Mean (SD) Observed” value (11-deoxycortisol; Wk 4, 50 mg QD) was 27.15 (13.97) ng/dL and the “11-Deoxycortisol, Mean (SD) Percent Change from Baseline” value (11-deoxycortisol; Wk 4, 50 mg QD) was 10.80 (61.95) %. The “11-Deoxycortisol, Mean (SD) Observed” value (11-deoxycortisol; Wk 4, 100 mg QD) was 29.29 (23.99) ng/dL, the “11-Deoxycortisol, Mean (SD) Percent Change from Baseline” value (11-deoxycortisol; Wk 4, 100 mg QD) was 9.43 (60.26) % and the “11-Deoxycortisol, Mean (SD) Observed” value (11-deoxycortisol; Wk 12, 12.5 mg BID) was 20.94 (10.27) ng/dL. The “11-Deoxycortisol, Mean (SD) Percent Change from Baseline” value (11-deoxycortisol; Wk 12, 12.5 mg BID) was −14.58 (33.13) %, the “11-Deoxycortisol, Mean (SD) Observed” value (11-deoxycortisol; Wk 12, 12.5 mg QD) was 31.56 (29.77) ng/dL and the “11-Deoxycortisol, Mean (SD) Percent Change from Baseline” value (11-deoxycortisol; Wk 12, 12.5 mg QD) was 58.62 (122.14) %. For the same molecule, the “11-Deoxycortisol, Mean (SD) Observed” value (11-deoxycortisol; Wk 12, 25 mg BID) was 31.55 (26.82) ng/dL, the “11-Deoxycortisol, Mean (SD) Percent Change from Baseline” value (11-deoxycortisol; Wk 12, 25 mg BID) was 26.81 (72.59) % and the “11-Deoxycortisol, Mean (SD) Observed” value (11-deoxycortisol; Wk 12, 50 mg QD) was 26.15 (18.89) ng/dL. The “11-Deoxycortisol, Mean (SD) Percent Change from Baseline” value (11-deoxycortisol; Wk 12, 50 mg QD) was 9.25 (111.16) %, the “11-Deoxycortisol, Mean (SD) Observed” value (11-deoxycortisol; Wk 12, 100 mg QD) was 31.17 (25.98) ng/dL and the “11-Deoxycortisol, Mean (SD) Percent Change from Baseline” value (11-deoxycortisol; Wk 12, 100 mg QD) was 22.05 (64.71) %. For the same molecule, the “11-deoxycortisol compared with placebo” value (11-deoxycortisol; Part 1 active treatment arms, Week 4) was “Transient increases”, the “11-Deoxycortisol, Mean Observed” value (11-deoxycortisol; Wk 4, 100 mg QD) was 35.96 ng/dL and the “11-Deoxycortisol, Mean Percent Change from Baseline” value (11-deoxycortisol; Wk 4, 100 mg QD) was 22.95%. For the same molecule, the “11-Deoxycortisol, Mean Observed” value (11-deoxycortisol; Wk 10, 100 mg QD) was 27.60 ng/dL and the “11-Deoxycortisol, Mean Percent Change from Baseline” value (11-deoxycortisol; Wk 10, 100 mg QD) was −2.13%.
